Laboratory results reported in ChEMBL document CHEMBL4184210, “Optimization of novel monobactams with activity against carbapenem-resistant Enterobacteriaceae - Identification of LYS228” (Bioorg Med Chem Lett, 2018).
Values after ≈ are worked out from the molar mass of the structure shown. Active and inactive are the calls of the source. The calls are words filed in the database; no cut-off is given here.

How the values were obtained:
[1] = target: T1, Beta-lactamase SHV-12 (Escherichia coli, UniProt Q7X574); test: Stability assessed as assessed as Escherichia coli beta-lactamase SHV-12-mediated compound hydrolysis by measuring molar enthalpy of hydrolysis at 1 mM by isothermal titration calorimetry; assay type: ADME; conditions: 1000 µM
T1 sequence (Q7X574 whole entry): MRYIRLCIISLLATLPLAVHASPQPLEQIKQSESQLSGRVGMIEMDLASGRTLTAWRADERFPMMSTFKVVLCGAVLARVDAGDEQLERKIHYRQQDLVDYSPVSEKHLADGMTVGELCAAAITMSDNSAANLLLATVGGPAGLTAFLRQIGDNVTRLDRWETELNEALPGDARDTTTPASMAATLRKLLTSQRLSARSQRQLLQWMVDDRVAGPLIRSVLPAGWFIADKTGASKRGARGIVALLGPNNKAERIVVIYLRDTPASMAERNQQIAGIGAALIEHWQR

[2] = Stability assessed as assessed as Escherichia coli beta-lactamase CTX-M-15-mediated compound hydrolysis by measuring molar enthalpy of hydrolysis at 1 mM by isothermal titration calorimetry; assay type: ADME; conditions: 1000 µM
[3] = Stability assessed as assessed as Escherichia coli beta-lactamase KPC-2-mediated compound hydrolysis by measuring molar enthalpy of hydrolysis at 1 mM by isothermal titration calorimetry; assay type: ADME; conditions: 1000 µM
[4] = AUC in mouse at […], iv; assay type: ADME, organism-based; conditions: in vivo
[5] = AUC in rat at 10 mg/kg, iv; assay type: ADME, organism-based; conditions: in vivo
[6] = AUC in dog at 10 mg/kg, iv; assay type: ADME, organism-based, Canis lupus familiaris; conditions: in vivo
[7] = Drug excretion in rat assessed as unchanged parent drug level at 10 mg/kg, iv; assay type: ADME, organism-based; conditions: in vivo, read-out: Drug excretion
[8] = Drug excretion in dog assessed as unchanged parent drug level at 10 mg/kg, iv; assay type: ADME, organism-based, Canis lupus familiaris; conditions: in vivo, read-out: Drug excretion
[9] = system: Klebsiella pneumoniae; test: Antimicrobial activity against Klebsiella pneumoniae expressing beta-lactamase NDM-1 infected in neutropenic mouse thigh infection model assessed as compound dose causing 1 log10 CFU reduction in bacterial load dosed subcutaneously every 4 hrs; assay type: functional
[10] = system: Escherichia coli; test: microbe, parasite or virus in culture
[11] = system: Escherichia coli; test: microbe, parasite or virus in culture; remark: listed apart in the source
[12] = system: Escherichia coli; test: microbe, parasite or virus in culture; remark: listed apart in the source
[13] = system: Escherichia coli; test: microbe, parasite or virus in culture; remark: listed apart in the source
[14] = system: Escherichia coli; test: microbe, parasite or virus in culture; remark: listed apart in the source
[15] = system: Escherichia coli; test: microbe, parasite or virus in culture; remark: listed apart in the source
[16] = system: Escherichia coli; test: microbe, parasite or virus in culture; remark: listed apart in the source
[17] = system: Escherichia coli; test: microbe, parasite or virus in culture; remark: listed apart in the source
[18] = system: Escherichia coli; test: microbe, parasite or virus in culture; remark: listed apart in the source
[19] = system: Escherichia coli; test: microbe, parasite or virus in culture; remark: listed apart in the source
[20] = system: Escherichia coli; test: microbe, parasite or virus in culture; remark: listed apart in the source
[21] = system: Escherichia coli; test: microbe, parasite or virus in culture; remark: listed apart in the source
[22] = system: Escherichia coli; test: microbe, parasite or virus in culture; remark: listed apart in the source
[23] = system: Escherichia coli; test: microbe, parasite or virus in culture; remark: listed apart in the source
[24] = system: Escherichia coli; test: microbe, parasite or virus in culture; remark: listed apart in the source
[25] = system: Escherichia coli; test: microbe, parasite or virus in culture; remark: listed apart in the source
[26] = system: Escherichia coli; test: microbe, parasite or virus in culture; remark: listed apart in the source
[27] = system: Escherichia coli; test: microbe, parasite or virus in culture; remark: listed apart in the source
[28] = system: Escherichia coli; test: Antimicrobial activity against Escherichia coli expressing beta-lactamase KPC-2 by CLSI broth microdilution method; assay type: functional
[29] = system: Escherichia coli; test: Antimicrobial activity against Escherichia coli expressing beta-lactamase VEB-1 by CLSI broth microdilution method; assay type: functional
[30] = system: Escherichia coli; test: Antimicrobial activity against Escherichia coli expressing beta-lactamase NDM-1 by CLSI broth microdilution method; assay type: functional
[31] = system: Escherichia coli; test: Antimicrobial activity against Escherichia coli expressing beta-lactamase NDM-5 by CLSI broth microdilution method; assay type: functional
[32] = Chemical stability in pH 7.4 potassium phosphate buffer assessed as half life for compound hydrolysis at 37 degC by UPLC and mass spectrometry; assay type: physicochemical
[33] = system: Escherichia coli; test: microbe, parasite or virus in culture; remark: listed apart in the source
[34] = system: Escherichia coli; test: microbe, parasite or virus in culture; remark: listed apart in the source
[35] = system: Escherichia coli; test: microbe, parasite or virus in culture; remark: listed apart in the source
[36] = system: Escherichia coli; test: microbe, parasite or virus in culture; remark: listed apart in the source
[37] = system: Escherichia coli; test: microbe, parasite or virus in culture; remark: listed apart in the source
[38] = system: Escherichia coli; test: microbe, parasite or virus in culture; remark: listed apart in the source
[39] = system: Escherichia coli; test: microbe, parasite or virus in culture; remark: listed apart in the source
[40] = system: Escherichia coli; test: microbe, parasite or virus in culture; remark: listed apart in the source
[41] = system: Escherichia coli; test: microbe, parasite or virus in culture; remark: listed apart in the source
[42] = system: Escherichia coli; test: microbe, parasite or virus in culture; remark: listed apart in the source
[43] = system: Escherichia coli; test: microbe, parasite or virus in culture; remark: listed apart in the source
[44] = system: Escherichia coli; test: microbe, parasite or virus in culture; remark: listed apart in the source
[45] = system: Escherichia coli; test: microbe, parasite or virus in culture; remark: listed apart in the source
[46] = system: Escherichia coli; test: microbe, parasite or virus in culture; remark: listed apart in the source
[47] = system: Escherichia coli; test: microbe, parasite or virus in culture; remark: listed apart in the source
[48] = system: Escherichia coli; test: microbe, parasite or virus in culture; remark: listed apart in the source
[49] = system: Escherichia coli; test: microbe, parasite or virus in culture; remark: listed apart in the source
[50] = system: Escherichia coli; test: microbe, parasite or virus in culture; remark: listed apart in the source
[51] = system: Escherichia coli; test: microbe, parasite or virus in culture; remark: listed apart in the source
[52] = system: Escherichia coli; test: microbe, parasite or virus in culture; remark: listed apart in the source
[53] = system: Escherichia coli; test: microbe, parasite or virus in culture; remark: listed apart in the source
[54] = system: Escherichia coli; test: microbe, parasite or virus in culture; remark: listed apart in the source

C[C@H]1[C@H](NC(=O)/C(=N\OC(C)(C)C(=O)O)c2csc(N)n2)C(=O)N1S(=O)(=O)O [AZTREONAM]
Stability [1]: Unstable
Stability [2]: Unstable
Stability [3]: Unstable
AUC [4]: 5000 ng·h/mL
AUC [5]: 13000 ng·h/mL
AUC [6]: 13000 ng·h/mL
dose excreted [7]: 40%
dose excreted [8]: 53%
Activity [9]: inactive
MIC [10]: 16 µg/mL (≈ 36.7 µM)
MIC [11]: 1 µg/mL (≈ 2.3 µM)
MIC [12]: 256 µg/mL (≈ 588 µM)
MIC [13]: > 1020 µg/mL
MIC [14]: 128 µg/mL (≈ 294 µM)
MIC [15]: 16 µg/mL (≈ 36.7 µM)
MIC [16]: 8 µg/mL (≈ 18.4 µM)
MIC [17]: 8 µg/mL (≈ 18.4 µM)
MIC [18]: 16 µg/mL (≈ 36.7 µM)
MIC [19]: 4 µg/mL (≈ 9.19 µM)
MIC [20]: 1 µg/mL (≈ 2.3 µM)
MIC [21]: 4 µg/mL (≈ 9.19 µM)
MIC [22]: 8 µg/mL (≈ 18.4 µM)
MIC [23]: 4 µg/mL (≈ 9.19 µM)
MIC [24]: 1 µg/mL (≈ 2.3 µM)
MIC [25]: 16 µg/mL (≈ 36.7 µM)
MIC [26]: 1 µg/mL (≈ 2.3 µM)
MIC [27]: 8 µg/mL (≈ 18.4 µM)

NC(=O)OC[C@@H]1[C@H](NC(=O)/C(=N\OCC(=O)O)c2csc(N)n2)C(=O)N1S(=O)(=O)O [CARUMONAM]
MIC [28]: 1 µg/mL (≈ 2.14 µM)
MIC [29]: > 64 µg/mL
MIC [30]: 0.125 µg/mL (≈ 0.268 µM)
MIC [31]: 0.125 µg/mL (≈ 0.268 µM)
half-life [32]: > 83.3 days
Stability [1]: Unstable
Stability [2]: Stable
Stability [3]: Stable
MIC [33]: 0.06 to 0.125 µg/mL (≈ 0.129 to 0.268 µM)
MIC [10]: 0.125 µg/mL (≈ 0.268 µM)
MIC [34]: 0.125 µg/mL (≈ 0.268 µM)
MIC [11]: 0.125 µg/mL (≈ 0.268 µM)
MIC [35]: 0.125 µg/mL (≈ 0.268 µM)
MIC [36]: 0.125 µg/mL (≈ 0.268 µM)
MIC [37]: 32 µg/mL (≈ 68.6 µM)
MIC [38]: 4 µg/mL (≈ 8.58 µM)
MIC [39]: 0.125 µg/mL (≈ 0.268 µM)
MIC [12]: > 64 µg/mL
MIC [13]: > 64 µg/mL
MIC [14]: 64 µg/mL (≈ 137 µM)
MIC [40]: > 64 µg/mL
MIC [41]: 0.125 µg/mL (≈ 0.268 µM)
MIC [42]: 64 µg/mL (≈ 137 µM)
MIC [43]: > 64 µg/mL
MIC [44]: 4 µg/mL (≈ 8.58 µM)
MIC [15]: 0.5 µg/mL (≈ 1.07 µM)
MIC [16]: 4 µg/mL (≈ 8.58 µM)
MIC [17]: 0.5 µg/mL (≈ 1.07 µM)
MIC [18]: 0.5 µg/mL (≈ 1.07 µM)
MIC [45]: 0.125 µg/mL (≈ 0.268 µM)
MIC [46]: 0.125 µg/mL (≈ 0.268 µM)
MIC [47]: 0.125 µg/mL (≈ 0.268 µM)
MIC [48]: 0.125 µg/mL (≈ 0.268 µM)
MIC [19]: 4 µg/mL (≈ 8.58 µM)
MIC [20]: 16 µg/mL (≈ 34.3 µM)
MIC [21]: 4 µg/mL (≈ 8.58 µM)
MIC [22]: 8 µg/mL (≈ 17.2 µM)
MIC [23]: 4 µg/mL (≈ 8.58 µM)
MIC [24]: 0.5 µg/mL (≈ 1.07 µM)
MIC [49]: 16 µg/mL (≈ 34.3 µM)
MIC [50]: 0.125 µg/mL (≈ 0.268 µM)
MIC [51]: 0.125 µg/mL (≈ 0.268 µM)
MIC [52]: 0.125 µg/mL (≈ 0.268 µM)
MIC [53]: 0.125 µg/mL (≈ 0.268 µM)
MIC [25]: 2 µg/mL (≈ 4.29 µM)
MIC [26]: 1 µg/mL (≈ 2.14 µM)
MIC [54]: 0.125 µg/mL (≈ 0.268 µM)
MIC [27]: 1 µg/mL (≈ 2.14 µM)
